We go through 32 compounds from US20230339890A1, “AMINO ALCOHOL COMPOUNDS AND USES THEREOF” (Kineta, Inc., priority 2020, published 2023).

Each structure is given as a SMILES string.

The test addresses Recombinant human CYP51A1 (lanosterol-14a-demethylase) (Homo sapiens (Human), UniProt Q16850). The experiment in a line: Inhibition of CYP51A1, fluorescent substrate BOMCC. The test is classed as biochemical. Conditions: recombinant human CYP51A1 coexpressed with CYP reductase in bacterial membranes, 8-point concentration-response, read-out: CYP51 IC50. From the text:
Method: Recombinant human CYP51A1 (lanosterol-14a-demethylase) enzyme was coexpressed with CYP reductase in bacterial membranes and the fluorescent substrate BOMCC (a nonnatural substrate that causes increases in fluorescence upon CYP51A1-dependent demethylation) was used to obtain 8-point dose concentration-response curves for each compound.

Chain of Recombinant human CYP51A1 (lanosterol-14a-demethylase) (Q16850 whole entry): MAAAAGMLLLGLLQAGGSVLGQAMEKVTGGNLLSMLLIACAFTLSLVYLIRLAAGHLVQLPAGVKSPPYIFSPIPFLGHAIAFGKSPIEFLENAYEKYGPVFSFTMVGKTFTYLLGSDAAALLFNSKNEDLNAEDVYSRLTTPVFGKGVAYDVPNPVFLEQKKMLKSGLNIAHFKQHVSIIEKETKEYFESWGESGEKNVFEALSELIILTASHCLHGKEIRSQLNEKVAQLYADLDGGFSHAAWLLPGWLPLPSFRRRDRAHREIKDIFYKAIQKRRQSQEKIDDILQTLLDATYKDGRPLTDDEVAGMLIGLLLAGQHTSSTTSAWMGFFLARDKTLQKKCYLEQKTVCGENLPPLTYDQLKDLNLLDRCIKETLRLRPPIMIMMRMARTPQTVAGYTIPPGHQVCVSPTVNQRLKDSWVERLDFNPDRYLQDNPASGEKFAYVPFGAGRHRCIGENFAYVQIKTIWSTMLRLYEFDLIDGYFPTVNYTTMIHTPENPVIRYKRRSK

For orientation: IC50 means the concentration needed to halve the response being measured. As to `CCCN(CC(O)c1cnccn1)C(=O)Cc1ccc(C(F)(F)F)nc1` (centres unmarked) [compound 113], the IC50 was > 1000 nM.
As to `CCCN(CC(O)c1ccc(C(F)(F)F)nc1)C(=O)Cc1ccc(Cl)c(Cl)c1` (centres unmarked) [compound 114, 2-(3,4-dichlorophenyl)-N-[2-hydroxy-2-[6-(trifluoromethyl)-3-pyridyl]ethyl]-N-propyl-acetamide], the 50% inhibitory concentration (IC50) was > 1000 nM.
In the case of `CCCN(CC(O)c1ccc(=O)[nH]c1)C(=O)Cc1ccc(Cl)c(Cl)c1` (centres unmarked) [compound 115, 2-(3,4-dichlorophenyl)-N-[2-hydroxy-2-(6-oxo-1 H-pyridin-3-yl)ethyl]-N-propyl-acetamide], the IC50 is > 1000 nM.
On to `CCCN(CC(O)c1cccnn1)C(=O)Cc1ccc(OC(F)(F)F)c(Cl)c1` (centres unmarked) [compound 116], for which the IC50 lay in the range of 100 to 1000 nM.
As to `CCCN(CC(O)c1cccnc1)C(=O)C(C)c1ccc(Cl)c(Cl)c1` (centres unmarked) [compound 117, 2-(3,4-dichlorophenyl)-N-[2-hydroxy-2-(3-pyridyl)ethyl]-N-propyl-propanamide], the IC50 is > 1000 nM.
Then `CCCN(C[C@@H](O)c1cccnc1)C(=O)Cc1cccc2ncsc12` [compound 118, 2-(1,3-benzothiazol-7-yl)-N-[(2S)-2-hydroxy-2-(3-pyridyl)ethyl]-N-propyl-acetamide], with > 1000 nM; and `CCCN(C[C@@H](O)c1cccnc1)C(=O)Cc1ccc(C#N)c(F)c1` [compound 119, 2-(4-cyano-3-fluoro-phenyl)-N-[(2S)-2-hydroxy-2-(3-pyridyl)ethyl]-N-propyl-acetamide], with ≤ 100 nM; and `CCCN(C[C@@H](O)c1cccnc1)C(=O)C1Cc2ccc(Cl)c(Cl)c2C1` (stereo partly drawn) [compound 120, 4,5-dichloro-N-[(2S)-2-hydroxy-2-(3-pyridyl)ethyl]-N-propyl-indane-2-carboxamide], with ≤ 100 nM.
The result for `CCCN(CC(O)c1ccc(=O)n(C)c1)C(=O)Cc1ccc(Cl)c(Cl)c1` (centres unmarked) [compound 121, 2-(3,4-dichlorophenyl)-N-[2-hydroxy-2-(1-methyl-6-oxo-3-pyridyl)ethyl]-N-propyl-acetamide] reads > 1000 nM.
For `CCCN(C(=O)Cc1ccc(Cl)c(Cl)c1)C(CO)c1ccc(=O)n(C)c1` (centres unmarked) [compound 122, 2-(3,4-dichlorophenyl)-N-[2-hydroxy-1-(1-methyl-6-oxo-3-pyridyl)ethyl]-N-propyl-acetamide], the IC50 was > 1000 nM.
For the compound `CCCN(CC(O)c1cccnc1)C(=O)Cc1cccnc1` (centres unmarked) [compound 123, N-[2-hydroxy-2-(3-pyridyl)ethyl]-N-propyl-2-(3-pyridyl)acetamide], the IC50 is > 1000 nM.
In the case of `CCCN(C[C@@H](O)c1cccnc1)C(=O)Cc1cnc(C(F)(F)F)nc1` [compound 124, N-[(2S)-2-hydroxy-2-(3-pyridyl)ethyl]-N-propyl-2-[2-(trifluoromethyl)pyrimidin-5-yl]acetamide], the IC50 was ≤ 100 nM.
For `CCCN(CC(O)c1cncc(F)c1)C(=O)Cc1ccc(Cl)c(Cl)c1` (centres unmarked) [compound 126, 2-(3,4-dichlorophenyl)-N-[2-(5-fluoro-3-pyridyl)-2-hydroxyethyl]-N-propyl-acetamide], the IC50 lay within 100 to 1000 nM.
`CCCN(C[C@@H](O)c1cccnc1)C(=O)Cc1ccnc(C(F)(F)F)c1` [compound 127, N-[(2S)-2-hydroxy-2-(3-pyridyl)ethyl]-N-propyl-2-[2-(trifluoromethyl)-4-pyridyl]acetamide]: the IC50 was > 1000 nM.
As for `CCCN(C[C@@H](O)c1cccnc1)C(=O)C1Cc2cnc(C(F)(F)F)cc2C1` (stereo partly drawn) [compound 128, N-[(2S)-2-hydroxy-2-(3-pyridyl)ethyl]-N-propyl-3-(trifluoromethyl)-6,7-dihydro-5H-cyclopenta[c]pyridine-6-carboxamide], the IC50 is ≤ 100 nM.
Regarding `CCCN(CC(O)c1cnccn1)C(=O)C1Cc2cc(Cl)c(Cl)cc2C1` (centres unmarked) [compound 129], the IC50 is 100 to 1000 nM.
Consider `CCCN(C[C@@H](O)c1cccnc1)C(=O)Cc1cnc(C(C)(C)C)nc1` [compound 130, 2-(2-tert-butylpyrimidin-5-yl)-N-[(2S)-2-hydroxy-2-(3-pyridyl)ethyl]-N-propyl-acetamide], for which the IC50 was ≤ 100 nM.
On to `CCCN(C[C@@H](O)c1cccnc1)C(=O)C1Cc2cc(Cl)c(Br)cc2C1` (stereo partly drawn) [compound 131, 5-bromo-6-chloro-N-[(2S)-2-hydroxy-2-(3-pyridyl)ethyl]-N-propyl-indane-2-carboxamide], for which the IC50 was ≤ 100 nM.
Then `CCCN(C[C@@H](O)c1cccnc1)C(=O)C(C)c1ccc(C(F)(F)F)nc1` (stereo partly drawn) [compound 132, N-[(2S)-2-hydroxy-2-(3-pyridyl)ethyl]-N-propyl-2-[6-(trifluoromethyl)-3-pyridyl]propanamide], with > 1000 nM; and `CCCN(C[C@@H](O)c1cccnc1)C(=O)C1Cc2cc(C#N)c(C#N)cc2C1` [compound 133, 5,6-dicyano-N-[(2S)-2-hydroxy-2-(3-pyridyl)ethyl]-N-propyl-indane-2-carboxamide], with 100 to 1000 nM.
As to `CCCN(C[C@@H](O)c1cccnc1)C(=O)C1Cc2cc(Cl)c(C#N)cc2C1` (stereo partly drawn) [compound 134, 5-chloro-6-cyano-N-[(2S)-2-hydroxy-2-(3-pyridyl)ethyl]-N-propyl-indane-2-carboxamide], the IC50 was ≤ 100 nM.
In the case of `CCCN(C[C@@H](O)c1cccnc1)C(=O)N1Cc2cc(Cl)c(Br)cc2C1` [compound 135, 5-bromo-6-chloro-N-[(2S)-2-hydroxy-2-(3-pyridyl)ethyl]-N-propyl-isoindoline-2-carboxamide], the IC50 is ≤ 100 nM.
Then `CCCN(CC(O)c1cnccc1N)C(=O)Cc1ccc(C(F)(F)F)nc1` (centres unmarked) [compound 136, N-[2-(4-amino-3-pyridyl)-2-hydroxyethyl]-N-propyl-2-[6-(trifluoromethyl)-3-pyridyl]acetamide], with ≤ 100 nM.
In the case of `CC(C)(C)OC(=O)N(CCc1ccc2ccccc2c1)CC(O)c1cccnc1` (centres unmarked) [compound 137, Tert-butyl N-[2-hydroxy-2-(3-pyridyl)ethyl]-N-[2-(2-naphthyl)ethyl]carba mate], the IC50 is ≤ 100 nM.
Then `CC(C)(C)OC(=O)N(CCc1ccc(Cl)c(Cl)c1)CC(O)c1cccnc1` (centres unmarked) [compound 138, Tert-butyl N-[2-(3,4-dichlorophenyl)ethyl] -N-[2-hydroxy-2-(3-pyridyl)ethyl]carbam ate], with 100 to 1000 nM; and `CC(C)(C)OC(=O)NCCCCCN(CC(O)c1cccnc1)C(=O)Cc1ccc(Cl)c(Cl)c1` (centres unmarked) [compound 139, tert-butyl N-[5-[[2-(3,4-dichlorophenyl)acetyl]-[2-hydroxy-2-(3-pyridyl)ethyl]amino]pentyl]carbamate], with ≤ 100 nM.
Then `CC(C)(C)OC(=O)NCCCN(C[C@@H](O)c1cccnc1)C(=O)Cc1ccc(C(F)(F)F)nc1` [compound 140, tert-butyl N-[3-[[(2S)-2-hydroxy-2-(3-pyridyl)ethyl]-[2-[6-(trifluoromethyl)-3-pyridyl]acetyl]amino]propyl]carbamate], with ≤ 100 nM; and `CC(C)(C)OC(=O)NCCCCCN(C[C@@H](O)c1cccnc1)C(=O)Cc1ccc(C(F)(F)F)nc1` [compound 141, tert-butyl N-[5-[[(2S)-2-hydroxy-2-(3-pyridyl)ethyl]-[2-[6-(trifluoromethyl)-3-pyridyl]acetyl]amino]pentyl]carbamate], with ≤ 100 nM.
Take `CC(C)(C)OC(=O)NCCN(C[C@@H](O)c1cccnc1)C(=O)Cc1ccc(C(F)(F)F)nc1` [compound 143, tert-butyl N-[2-[[(2S)-2-hydroxy-2-(3-pyridyl)ethyl]-[2-[6-(trifluoromethyl)-3-pyridyl]acetyl]amino]ethyl]carbamate]: the IC50 is ≤ 100 nM.
As to `CC(C)(C)OC(=O)NC1CCC(CN(C[C@@H](O)c2cccnc2)C(=O)Cc2ccc(C(F)(F)F)nc2)CC1` (stereo partly drawn) [compound 145, tert-butyl N-[4-[[[(2S)-2-hydroxy-2-(3-pyridyl)ethyl]-[2-[6-(trifluoromethyl)-3-pyridyl]acetyl]amino]methyl]cyclohexyl] carbamate], the IC50 fell in the range of 100 to 1000 nM.
As for `CC(C)(C)OC(=O)NC1CCC(CN(C[C@@H](O)c2cccnc2)C(=O)Cc2ccc(C(F)(F)F)nc2)CC1` (stereo partly drawn) [compound 146, tert-butyl N-[4-[[[(2S)-2-hydroxy-2-(3-pyridyl)ethyl]-[2-[6-(trifluoromethyl)-3-pyridyl]acetyl]amino]methyl]cyclohexyl] carbamate], the IC50 is ≤ 100 nM.
As for `CCCN(C[C@H](O)c1cccnc1)C(=O)Cc1ccc2ccccc2c1` [compound 147, N-[(2R)-2-hydroxy-2-(3-pyridyl)ethyl]-2-(2-naphthyl)-N-propyl-acetamide], the IC50 is ≤ 100 nM.
